The conditions of data set [1]: 101.33 kPa, Liquid, Vibrating tube method.
Data set [2] can be described thus: refractive index (Na D-line) (dimensionless). The note with it: 101.33 kPa, Liquid, Standard Abbe refractometry.

Numbers after ± are expanded uncertainties.

Regarding `CCCCn1cc[n+](C)c1.NCC(=O)[O-]` [1-butyl-3-methylimidazolium glycinate], the mass density (as a rule, mass per unit of volume) in data set [1] (298.15 K) came out at 1260.26 ± 1.1 kg/m3; in data set [1] (303.15 K), 1257.2 ± 1.1 kg/m3; in data set [1] (308.15 K), 1254.1 ± 1.1 kg/m3; in data set [1] (313.15 K), 1250.77 ± 1.1 kg/m3. The refractive index (usually a measure of how strongly the sample bends light) in data set [2] (298.15 K) stood at 1.52 ± 0.002; in data set [2] (303.15 K) it was 1.519 ± 0.002; in data set [2] (308.15 K), 1.517 ± 0.002; in data set [2] (313.15 K) it was 1.517 ± 0.002.
As for `CCCCO` [butan-1-ol], the mass density is listed as 806 ± 1 kg/m3 in data set [1] (298.15 K), 802.4 ± 1 kg/m3 in data set [1] (303.15 K), 798.2 ± 1 kg/m3 in data set [1] (308.15 K) and 794.6 ± 1 kg/m3 in data set [1] (313.15 K). Further, the refractive index in data set [2] (298.15 K) is listed as 1.397 ± 0.002; in data set [2] (303.15 K), 1.395 ± 0.002; in data set [2] (308.15 K), 1.393 ± 0.002; in data set [2] (313.15 K), 1.391 ± 0.002.
Turning to `CC(C)O` [propan-2-ol], the mass density in data set [1] (298.15 K) amounted to 781.2 ± 1 kg/m3; in data set [1] (303.15 K), 774 ± 1 kg/m3; in data set [1] (308.15 K) it was 765.8 ± 1 kg/m3; in data set [1] (313.15 K), 757.2 ± 1 kg/m3. Moreover, the refractive index in data set [2] (298.15 K) was 1.375 ± 0.002; in data set [2] (303.15 K), 1.374 ± 0.002; in data set [2] (308.15 K), 1.373 ± 0.002; in data set [2] (313.15 K) it was 1.372 ± 0.002.

The record behind these values is the NIST ThermoML archive (doi:10.1021/je200030k).
